Test results from US12558342B2, “2-[2-({12,12-dimethyl-4-oxo-6-phenyl-3,11-dioxatricyclo[8.4.0.0,2,7]tetradeca-1,5,7,9-tetraen-8-yl}oxy)acetamido]benzamide and derivatives as inhibitor of clock:bmal1 interaction for the treatment of circadian rhythm diseases and disorders” (KOC UNIVERSITESI, priority 2019, dated 2026).

Key:
[1] = molecular target: T1, CLOCK (Homo sapiens, UniProt O15516); test: Pull-down assay with biotinylated CLK8, U2OS lysate with endogenous CLOCK; assay type: binding; design: expressed in transfected cells; host or cells: HEK293T
T1 sequence (O15516 1-846): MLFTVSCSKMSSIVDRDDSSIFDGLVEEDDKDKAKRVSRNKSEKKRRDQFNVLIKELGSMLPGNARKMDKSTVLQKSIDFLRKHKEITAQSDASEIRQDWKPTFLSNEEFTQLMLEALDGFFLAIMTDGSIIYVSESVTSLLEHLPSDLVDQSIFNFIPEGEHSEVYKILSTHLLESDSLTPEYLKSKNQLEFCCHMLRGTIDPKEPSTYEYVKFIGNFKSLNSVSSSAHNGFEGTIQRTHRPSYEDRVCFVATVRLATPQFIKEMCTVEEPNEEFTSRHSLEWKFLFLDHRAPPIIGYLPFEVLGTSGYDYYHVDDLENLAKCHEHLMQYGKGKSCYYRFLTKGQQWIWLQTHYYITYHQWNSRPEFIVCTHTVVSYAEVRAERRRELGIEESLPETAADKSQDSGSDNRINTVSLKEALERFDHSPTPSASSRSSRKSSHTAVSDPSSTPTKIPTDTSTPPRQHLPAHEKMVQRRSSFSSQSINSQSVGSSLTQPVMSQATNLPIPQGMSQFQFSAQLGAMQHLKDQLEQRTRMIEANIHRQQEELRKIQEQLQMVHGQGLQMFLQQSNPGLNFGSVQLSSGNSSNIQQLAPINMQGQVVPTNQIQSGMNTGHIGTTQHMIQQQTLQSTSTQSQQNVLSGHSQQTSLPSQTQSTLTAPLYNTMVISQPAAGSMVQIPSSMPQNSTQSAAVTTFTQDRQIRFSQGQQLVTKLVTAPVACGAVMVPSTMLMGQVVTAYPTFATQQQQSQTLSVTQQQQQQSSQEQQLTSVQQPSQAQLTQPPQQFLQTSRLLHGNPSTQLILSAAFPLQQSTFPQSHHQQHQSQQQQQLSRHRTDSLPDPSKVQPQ

[2] = test system: Clock-deficient MDA MB231 cells; test: Bmal1::dluc rhythm in Clock knockout MDA MB231 cells; assay type: cell-based; conditions: Clock knockout MDA MB231, different concentrations
Description: We used Bmal1::dluc U2-OS and Per1::dluc NIH 3T3, and continuously monitored the bioluminescence to record circadian rhythm. This experiment was performed in 96-well plates (triplicates) and 35-mm dishes (duplicates) in the secondary screen and detailed characterization steps respectively. Briefly, cells were seeded to reach confluency. A day after, the medium was replaced with DMEM containing 0.1 μM Dexamethasone to synchronize cells. […] The 96-well plates were covered and bioluminescence was monitored by Synergy H1 Hybrid Multi-Mode Reader every 32 minutes. […] Bioluminescence was recorded every 10 minutes for 4-6 days. […] The first day's data was excluded from the analysis due to transient perturbations of luminescence after the medium change.
HEK 293T cells at 75-85% confluency were transfected with […] of pLV6-Bmal-luc plasmid, 9 ng of pCMV-AR8.2dvpr packaging vector and 1 ng of pCMV-VSVG envelope vector for 16 h. […] At 72-hour post-transduction, the circadian rhythms of cells monitored using Lumicycle.
We used Bmal1::dluc U2-OS and Per1::dluc NIH 3T3, and continuously monitored the bioluminescence to record circadian rhythm. […] The 96-well plates were covered and bioluminescence was monitored by Synergy H1 Hybrid Multi-Mode Reader every 32 minutes. […] Bioluminescence was recorded every 10 minutes for 4-6 days. […]

affinity for CLOCK ([1]; endogenous CLOCK, input vs precipitated sample): high affinity for CLOCK
Structure (SMILES): CC1(C)CCc2c(cc(OCC(=O)Nc3ccccc3C(N)=O)c3c(-c4ccccc4)cc(=O)oc23)O1 [CLK8, 2-[2-({12,12-dimethyl-4-oxo-6-phenyl-3,11-dioxatricyclo [8.4.0.0,2,7]tetradeca-1,5,7,9-tetraen-8-yl}oxy)acetamido] benzamide]
other core clock components as target ([1]; except BMAL1, including NPAS2): none of the other core clock components were detected as a target
CLK8-mediated increase in Bmal1-luc intensity [2]: abolished
